Key:
[1] = tested on: AsPC-1 (ATCC CRL-1682) cells; assay: KRAS G12D 3D CellTiter-Glo proliferation assay, AsPC-1; type: cell-based; conditions: Homo sapiens, ASPC1, 168 h; 3D proliferation, 7 days, CellTiter-Glo 3D
Protocol: (§1) HPAC (ATCC CRL-2119) and AsPC-1 (ATCC CRL-1682) cells were purchased from ATCC, and each cell was cultured in medium supplemented with 10% fetal bovine serum (FBS), according to the protocol recommended by the manufacture. Serially diluted compound was added to 384-well Ultra-Low Attachment Surface round bottom plate (Corning). 400 cells/well were seeded in plate and incubated at 37° C., 5% CO2 for 7 days. Cell viability was measured using a CellTiter-Glo® 3D Cell Viability Assay kit (Promega) according to the manufacturer's protocol.
(§2) The 2D and 3D proliferation data of the exemplary compounds of the present disclosure in different cell lines are shown in Table 3.

[2] = tested on: p-ERK in PNAC-1/HPAC cell; assay: Phospho-ERK 1/2 assay (Table 1); type: cell-based; conditions: Homo sapiens; PNAC-1/HPAC cell, 3 hours compound incubation; read-out: p-ERK IC50
Outline: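 Pancreatic cancer cells (PNAC-1/HPAC) treated with compound 3 hours at 37° C, 0.5% DMSO final, then fixed and methanol-permeabilized. In-cell western: rabbit anti-pERK with mouse anti-GAPDH overnight at 4° C, IR-dye secondaries, imaged at 700 and 800 nm.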

WT-KRAS cell line MKN-1 = assay: Phospho-ERK 1/2 assay, WT-KRAS cell line MKN-1 (Table 2); type: cell-based; conditions: for IC50: Homo sapiens, WT-KRAS cell line MKN-1, p-ERK; for Selectivity Fold: selectivity over WT-KRAS cell line MKN-1 vs Panc-1 p-ERK
Protocol: (§3) Allow PNAC-1/HPAC cell growth in a T75 flask in DMEM and 10% 1 fetal calf serum (FCS; Gibco), using standard tissue culture procedures until ˜80% confluency is achieved. Day 1, seed 6000 cells/well in 384 well plate and incubate at 37° C., 5% CO2. Add diluted compound by Echo 550, final DMSO is 0.5%, incubate cells at 37° C., 5% CO2 for 3 hours. Then, remove medium and fix cells with 3.7% formaldehyde in PBS (PFA) by Apricot. Wash with PBS once. Permeabilize cells with cold 100% methanol and repeat wash once with PBS once. Add Li-Cor blocking buffer to each well and incubate 1.5 hours at RT. Remove blocking buffer and add primary antibody mixture (rabbit anti pERK, mouse anti GAPDH). Incubate at 4° C. overnight. Day 2, wash with PBST (Tween-20 in PBS) with total 3 times and then add secondary antibody mixture (goat anti rabbit 800CW (1:800 dilution in the combined solution) and goat anti mouse 680RD (1:800 dilution in the combined solution)), incubate for 60 minutes at RT away from light. Repeat washing with PBST 3 times. After final wash, centrifuge plate up-side-down at 1000 rpm to remove wash solution completely from wells. Before plate scanning, clean the bottom plate surface and the Odyssey* Imager scanning bed (if applicable) with moist, lint-free tissue to avoid any obstructions during scanning. Scan plate with detection in both 700 and 800 nm channels.
(§4) Table 2 describes the p-ERK IC50 values and selectivity over WT-KRAS cell line MKN-1 of the exemplary compounds of the present disclosure and reference compound MRTX-1133.

[3] = In vivo oral bioavailability assay; conditions: Balb/c mice female, IV bolus 1 mg/kg and oral gavage 30 mg/kg, single dose
Protocol: Single dose following IV bolus (1 mg/kg, 0.2 mg/mL in 1% DMSO, 99% SBE-β-CD (10% w/v) in water) and oral gavage (30 mg/kg, 3 mg/mL in 1% MC in DI water) administration of test compound in Balb/c Mice female. The blood samples were collected at 2 min, 5 min, 10 min, 30 min, 1 hr, 2 hr, 4 hr, 8 hr and 24 hr (additional 32 hr and 48 hr for MRTX1133) after IV bolus, at 15 min, 30 min, 1 hr, 1.5 hr, 2 hr, 3 hr, 4 hr, 8 hr and 24 hr (additional 32 hr and 48 hr for MRTX1133) after PO administration. The plasma concentrations of compounds were determined with UPLC-MS/MS.

[4] = tested on: AsPC-1 (ATCC CRL-1682) cells; assay: KRAS G12D 2D CellTiter-Glo proliferation assay, AsPC-1; type: cell-based; conditions: Homo sapiens, ASPC1, 2D proliferation, 72 hours
Protocol: (§5) AsPC-1 (ATCC CRL-1682) and LS513 (ATCC CRL-2134) cells were purchased from ATCC, GP2D (Cobioer CBP60010) cells was purchased from Cobioer biosciences CO., LTD, and each cell was cultured in medium supplemented with 10% fetal bovine serum (FBS), according to the protocol recommended by the manufacture. Cells were seeded 800 cells/well in 384-well plates (Corning) and incubated at 37° C., 5% CO2 for 18 hours. Serially diluted compound was added to the cells, and plates were incubated at 37° C., 5% CO2 for 72 hours. Cell viability was measured using a CellTiter-Glo® Luminescent Cell Viability Assay kit (Promega) according to the manufacturer's protocol.
as §2

[5] = tested on: GP2D (Cobioer CBP60010) cells; assay: KRAS G12D 2D CellTiter-Glo proliferation assay, GP2D; type: cell-based; conditions: 2D proliferation, 72 hours
Protocol: as §5, §2

[6] = tested on: HPAC (ATCC CRL-2119) cells; assay: KRAS G12D 3D CellTiter-Glo proliferation assay, HPAC; type: cell-based; conditions: Homo sapiens, 168 h, 3D proliferation, 7 days, CellTiter-Glo 3D
Protocol: as §1, §2

[7] = tested on: LS513 (ATCC CRL-2134) cells; assay: KRAS G12D 2D CellTiter-Glo proliferation assay, LS513; type: cell-based; conditions: Homo sapiens, LS-513, 2D proliferation, 72 hours
Protocol: as §5, §2

Panc-1 p-ERK = assay: Phospho-ERK 1/2 assay, Panc-1 (Table 2); type: cell-based; conditions: Homo sapiens; Panc-1 cells
Protocol: as §3, §4

Structure (SMILES)	IC50 [1] [nM]	IC50 [2] [nM]	IC50 (WT-KRAS cell line MKN-1) [nM]	Selectivity Fold (WT-KRAS cell line MKN-1) [Fold]	Bioavailability (%) [3] [%]	Fa*Fg (%) [3] [%]	IC50 [4] [nM]	IC50 [5] [nM]	IC50 [6] [nM]	IC50 [7] [nM]	IC50 (Panc-1 p-ERK) [nM]
C#Cc1c(F)ccc2cccc(-c3nc4c5c(nc(OC[C@@]67CCCN6C[C@H](F)C7)nc5c3F)N3CC5CCC(N5)[C@H]3CO4)c12 (single isomer, unassigned) [Compound 10]	48	2	343	171	37.7	54.0	490	15	28	238	2
Oc1cc(Cl)c(C2CC2)c(-c2nc3c4c(nc(OC[C@@]56CCCN5C[C@H](F)C6)nc4c2F)N2C[C@@H]4CC[C@@H](N4)C2CO3)c1 (stereo partly drawn) [Compound 24, 3-chloro-4-cyclopropyl-5-((6R,9S)-1-fluoro-12-(((2R,7aS)-2-fluorotetrahydro-1H-pyrrolizin-7a(5H)-yl)methoxy)-5a,6,7,8,9,10-hexahydro-5H-4-oxa-3,10a,11,13,14-pentaaza-6,9-methanonaphtho[1,8-ab]heptalen-2-yl)phenol]	8.7	7	–	–	–	–	71	2.2	7.1	93	–
C#Cc1cccc2cccc(-c3nc4c5c(nc(OC[C@@]67CCCN6C[C@H](F)C7)nc5c3F)N3C[C@H]5CC[C@H](N5)[C@H]3CO4)c12 [Compound 25, (5aS,6S,9R)-2-(8-ethynylnaphthalen-1-yl)-1-fluoro-12-(((2R,7aS)-2-fluorotetrahydro-1H-pyrrolizin-7a(5H)-yl)methoxy)-5a,6,7,8,9,10-hexahydro-5H-4-oxa-3,10a,11,13,14-pentaaza-6,9-methanonaphtho[1,8-ab]heptalene]	54	10	754	75	39.2	56.6	516	23	76	80	10
CCc1c(F)ccc2cc(O)cc(-c3nc4c5c(nc(OC[C@@]67CCCN6C[C@H](F)C7)nc5c3F)N3C[C@H]5CC[C@H](N5)[C@H]3CO4)c12 [Compound 28, 5-ethyl-6-fluoro-4-((5aS,6S,9R)-1-fluoro-12-(((2R,7aS)-2-fluorotetrahydro-1H-pyrrolizin-7a(5H)-yl)methoxy)-5a,6,7,8,9,10-hexahydro-5H-4-oxa-3,10a,11,13,14-pentaaza-6,9-methanonaphtho[1,8-ab]heptalen-2-yl)naphthalen-2-ol]	4.7	0.76	76	100	–	–	35	1.2	3.3	25.2	0.76

Reference: US20240376123A1, “KRAS G12D INHIBITORS AND USES THEREOF” (SUZHOU ZANRONG PHARMA LIMITED, priority 2021, published 2024)
